Assay results reported in patent US9351955B2, “Compounds and pharmaceutical compositions thereof for the treatment of cystic fibrosis” (Galapagos NV, priority 2013, dated 2016).

Experiments:
Assay type in all cases: cell-based
CFTR-G178R = molecular target: T1, CFTR-G178R (Homo sapiens, UniProt P13569, G178R); assay: YFP-halide influx assay for the CFTR-G178R; conditions: read-out: EC50 measured by YFP-halide influx assay for the CFTR-G178R
T1 construct: expressed in transfected cells
Description: (§1) The YFP halide influx assay measures the functionality of the cystic fibrosis Transmembrane Conductance regulator (CFTR) channels. The assay is used to evaluate the capacity of compounds to increase the channel opening of existing mutant CFTR channels in the membrane. It makes use of the observation that the yellow fluorescent protein (YFP) variant YFP H148Q, I152L, F47L has its fluorescence substantially quenched by halide ions like Cl^− and I^−. (Galietta et al., 2001)
(§2) For this purpose, HEK293-cells are seeded in 96 well plates. During seeding, the cells are reverse-transfected with plasmid vectors that direct the expression of the CFTR G551D mutant and of the YFP reporter. Cells are incubated at 37° C., 5% CO2 for 24 hours so as to allow for sufficient expression of the CFTR protein.
(§3) The I^−-induced quenching of fluorescence is recorded immediately after injection of I^− for 7 seconds. The capacity of a compound to increase the channel opening is directly correlated with the decrease in fluorescence, and is expressed as (1−(fluorescence after 7 seconds (F)/fluorescence before injection (F0))) and an EC50 can be derived from a (1−F/F0) vs compound concentration plot.
(§4) Similar YHA assays were developed for other channel gating defective or channel conductance defective CFTR mutants to determine effect of compound on channel activity. Examples of mutants are G178R, G1349D, S549N, R117H, R334W. This assay is also used for additional class I CFTR mutants, including G542X, W1282X; class II mutants including N1303K, and for class III mutants including S1251N; or wild-type CFTR.

CFTR-G1349D = molecular target: T2, CFTR-G1349D (Homo sapiens, UniProt P13569, G1349D); assay: YFP-halide influx assay for the CFTR-G1349D; conditions: CFTR-G1349D mutant; read-out: EC50 measured by YFP-halide influx assay for the CFTR-G1349D
T2 construct: expressed in transfected cells
T2 sequence (P13569 whole entry G1349D): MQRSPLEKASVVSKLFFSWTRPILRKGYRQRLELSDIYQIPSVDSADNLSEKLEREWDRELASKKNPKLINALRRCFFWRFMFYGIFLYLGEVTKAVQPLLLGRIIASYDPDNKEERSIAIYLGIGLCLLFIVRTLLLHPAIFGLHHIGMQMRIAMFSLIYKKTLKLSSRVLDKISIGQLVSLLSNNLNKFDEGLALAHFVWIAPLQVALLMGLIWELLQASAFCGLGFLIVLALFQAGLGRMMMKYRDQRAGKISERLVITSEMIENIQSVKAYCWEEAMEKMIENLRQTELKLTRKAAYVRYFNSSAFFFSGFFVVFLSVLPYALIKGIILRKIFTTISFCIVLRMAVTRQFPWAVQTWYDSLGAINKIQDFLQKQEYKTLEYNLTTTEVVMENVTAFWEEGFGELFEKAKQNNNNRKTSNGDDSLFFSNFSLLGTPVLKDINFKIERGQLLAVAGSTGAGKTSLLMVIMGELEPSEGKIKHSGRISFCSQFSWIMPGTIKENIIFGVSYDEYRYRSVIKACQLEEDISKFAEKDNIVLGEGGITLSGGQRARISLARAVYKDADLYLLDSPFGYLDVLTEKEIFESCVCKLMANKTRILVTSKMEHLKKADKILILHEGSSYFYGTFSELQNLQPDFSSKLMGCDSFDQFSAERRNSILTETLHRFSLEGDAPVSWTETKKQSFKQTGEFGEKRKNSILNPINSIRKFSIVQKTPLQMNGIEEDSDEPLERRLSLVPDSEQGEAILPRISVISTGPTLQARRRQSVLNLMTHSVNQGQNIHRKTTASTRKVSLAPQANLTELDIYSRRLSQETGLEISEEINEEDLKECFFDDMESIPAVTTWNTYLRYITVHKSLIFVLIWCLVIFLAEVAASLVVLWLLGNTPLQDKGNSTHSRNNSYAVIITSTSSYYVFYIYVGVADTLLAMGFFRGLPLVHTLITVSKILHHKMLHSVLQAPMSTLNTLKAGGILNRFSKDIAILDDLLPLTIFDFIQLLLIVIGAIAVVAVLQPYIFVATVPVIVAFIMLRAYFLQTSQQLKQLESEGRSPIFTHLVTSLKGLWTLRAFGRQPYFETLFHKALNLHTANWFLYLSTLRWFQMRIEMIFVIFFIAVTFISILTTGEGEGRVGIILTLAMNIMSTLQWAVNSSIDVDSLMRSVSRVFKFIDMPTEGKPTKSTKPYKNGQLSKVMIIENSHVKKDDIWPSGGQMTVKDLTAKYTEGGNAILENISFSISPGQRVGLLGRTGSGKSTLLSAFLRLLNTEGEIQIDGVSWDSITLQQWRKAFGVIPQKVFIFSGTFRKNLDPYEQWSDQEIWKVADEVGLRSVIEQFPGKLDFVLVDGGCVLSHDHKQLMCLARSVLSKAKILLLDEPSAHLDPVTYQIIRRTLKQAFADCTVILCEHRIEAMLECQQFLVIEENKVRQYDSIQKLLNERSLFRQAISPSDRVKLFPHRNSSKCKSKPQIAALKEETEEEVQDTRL
Description: as §1, §2, §3, §4

CFTR-R117H = molecular target: T3, CFTR-R117H (Homo sapiens, UniProt P13569, R117H); assay: YFP-halide influx assay for the CFTR-R117H; conditions: CFTR-R117H mutant; read-out: EC50 measured by YFP-halide influx assay for the CFTR-R117H
T3 construct: expressed in transfected cells
T3 sequence (P13569 whole entry R117H): as the sequence (P13569 whole entry G1349D) above, with R117H, D1349G counted along it
Description: as §1, §2, §3, §4

CFTR-S549N = molecular target: T4, CFTR-S549N (Homo sapiens, UniProt P13569, S549N); assay: YFP-halide influx assay for the CFTR-S549N; conditions: CFTR-S549N mutant; read-out: EC50 measured by YFP-halide influx assay for the CFTR-S549N
T4 construct: expressed in transfected cells
T4 sequence (P13569 whole entry S549N): as the sequence (P13569 whole entry G1349D) above, with S549N, D1349G counted along it
Description: as §1, §2, §3, §4

CFTR ΔF508 mutant [1] = molecular target: T5, CFTR ΔF508 mutant (Homo sapiens, UniProt P13569, DEL508-508); assay: YFP-halide influx assay for the CFTR-ΔF508 mutation (384 well, CFBE41o- cells, FDSS/μCell); conditions: forskolin 10.67 μM, fluorescence after 36 seconds, read-out: EC50 measured by YFP-halide influx assay for the CFTR-ΔF508
T5 construct: expressed in transfected cells; host or cells: CFBE41o- (adenoviral transduction)
T5 sequence (P13569 with tags, fused parts or gaps DEL508-508): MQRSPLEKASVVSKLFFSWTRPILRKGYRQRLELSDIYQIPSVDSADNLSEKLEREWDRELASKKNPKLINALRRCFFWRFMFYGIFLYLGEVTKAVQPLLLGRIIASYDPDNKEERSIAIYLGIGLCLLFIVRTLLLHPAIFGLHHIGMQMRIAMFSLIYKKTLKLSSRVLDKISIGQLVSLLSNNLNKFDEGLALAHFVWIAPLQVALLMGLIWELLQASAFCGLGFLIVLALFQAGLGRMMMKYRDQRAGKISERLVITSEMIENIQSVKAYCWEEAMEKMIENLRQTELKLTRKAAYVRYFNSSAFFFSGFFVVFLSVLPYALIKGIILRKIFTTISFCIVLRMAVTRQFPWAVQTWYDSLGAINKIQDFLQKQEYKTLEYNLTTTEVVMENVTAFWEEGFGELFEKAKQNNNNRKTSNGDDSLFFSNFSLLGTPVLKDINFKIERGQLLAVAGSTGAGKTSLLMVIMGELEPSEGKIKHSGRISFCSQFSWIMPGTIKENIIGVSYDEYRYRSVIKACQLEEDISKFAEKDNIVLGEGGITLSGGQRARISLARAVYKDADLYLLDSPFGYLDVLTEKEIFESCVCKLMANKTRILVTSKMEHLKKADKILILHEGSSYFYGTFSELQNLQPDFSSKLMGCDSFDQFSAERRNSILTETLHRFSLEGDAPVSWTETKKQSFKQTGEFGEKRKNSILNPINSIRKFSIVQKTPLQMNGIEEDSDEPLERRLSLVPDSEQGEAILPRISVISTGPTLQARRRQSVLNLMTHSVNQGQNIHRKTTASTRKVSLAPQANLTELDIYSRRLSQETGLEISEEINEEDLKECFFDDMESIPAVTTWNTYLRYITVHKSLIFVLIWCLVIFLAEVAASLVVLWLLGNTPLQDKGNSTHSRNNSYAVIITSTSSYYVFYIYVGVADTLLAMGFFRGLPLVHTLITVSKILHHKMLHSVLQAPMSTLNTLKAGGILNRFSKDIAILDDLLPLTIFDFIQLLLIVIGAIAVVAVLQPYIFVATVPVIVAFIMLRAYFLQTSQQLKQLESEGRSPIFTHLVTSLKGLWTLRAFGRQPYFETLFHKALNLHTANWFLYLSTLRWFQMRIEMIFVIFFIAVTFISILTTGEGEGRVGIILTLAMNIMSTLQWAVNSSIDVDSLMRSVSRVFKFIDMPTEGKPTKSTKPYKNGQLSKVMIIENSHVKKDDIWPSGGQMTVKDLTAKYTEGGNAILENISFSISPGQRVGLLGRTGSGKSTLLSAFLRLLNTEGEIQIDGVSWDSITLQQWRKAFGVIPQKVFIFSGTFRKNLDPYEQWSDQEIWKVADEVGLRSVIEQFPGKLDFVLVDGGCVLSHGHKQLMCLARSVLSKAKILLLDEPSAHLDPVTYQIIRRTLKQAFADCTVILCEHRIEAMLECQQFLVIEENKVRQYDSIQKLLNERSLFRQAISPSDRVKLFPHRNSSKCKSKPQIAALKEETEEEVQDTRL
In short: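 CFBE41o- cells were adenovirally transduced with ΔF508 CFTR and the YFP H148Q/I152L reporter. Cells were then held 24 h at 27 °C or treated 24 h at 37 °C with a CFTR modulator. Iodide-induced quench was recorded for 2 min, and EC50 was derived from 1−F/F0 at 36 s against compound concentration.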

CFTR ΔF508 mutant [2] = molecular target: T5, CFTR ΔF508 mutant; assay: YFP-halide influx assay for the CFTR-ΔF508 mutation (96 well, CFBE41o- cells); conditions: compounds of the invention, 96 well, forskolin 10.67 μM, read-out: EC50 measured by YFP-halide influx assay for the CFTR-ΔF508
In short: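 CFBE41o- cells were adenovirally transduced with CFTR ΔF508 and the halide-sensitive YFP H148Q/I152L. They were then corrected either at 27 °C for 24 h or with a CFTR modulator for 24 h at 37 °C. After iodide injection, YFP quenching over 7 s was expressed as 1−F/F0, and EC50 was derived from the concentration–response plot.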

CFTR G551D mutant = molecular target: T6, CFTR G551D mutant (Homo sapiens, UniProt P13569, G551D); assay: YFP-halide influx assay for the CFTR-G551D mutation (HEK293 cells); conditions: HEK293 cells expressing CFTR G551D and YFP reporter; forskolin 10.67 μM; read-out: EC50 measured by YFP-halide influx assay for the CFTR-G551D
T6 construct: expressed in transfected cells; host or cells: HEK293 (reverse transfection with plasmids)
T6 sequence (P13569 whole entry G551D): as the sequence (P13569 whole entry G1349D) above, with G551D, D1349G counted along it
In short: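 HEK293 cells reverse-transfected with CFTR G551D and halide-sensitive YFP, expressed 24 h at 37 °C. Iodide-induced fluorescence quench recorded for 7 s after I^− injection; response as 1−F/F0, EC50 from concentration plot.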

CFTR ΔF508 = molecular target: T7, CFTR ΔF508 (Homo sapiens, UniProt P13569, DEL508-508); assay: TECC assay, primary bronchial epithelial cells from CF patients homozygous for CFTR ΔF508; conditions: primary bronchial epithelial cells, CFTR ΔF508; several values in a cell = repeat determinations
T7 construct: host or cells: primary bronchial epithelial cells from CF patients homozygous for ΔF508, pre-treated with VX809
T7 sequence (P13569 with tags, fused parts or gaps DEL508-508): as the sequence (P13569 with tags, fused parts or gaps DEL508-508) above
Description: 7.2.1. Primary Bronchial Epithelial Cells Protocol
The TECC (Tranepithelial Clamp Circuit, EP-design) assay measures the functionality of the cystic fibrosis Transmembrane Conductance regulator (CFTR) by measuring the short circuit current (ISC) generated over the basolateral and apical membrane of lung epithelial cells. In TECC the transepithelial potential PD and transepithelial resistance (Rt) are measured in an open circuit and transformed to ISC using Ohm's law. 24 wells can be measured simultaneously allowing a higher throughput compared to Ussing chambers.
For this purpose, bronchial epithelial cells isolated from CF patients homozygous for the CFTR ΔF508 mutation (hAEC-CF, Epithelix) are plated on type IV collagen-coated Transwell supports (Costar). Human airway epithelia are generated by provision of an air-liquid interface for 21 days to form well-differentiated polarized cultures that resemble in vivo pseudo-stratified ciliated epithelium (Fulcher et al., 2005). In the case of the homozygous ΔF508 CFTR samples, the differentiated cells are treated with 3 μM VX809 (2626 South Loop West, Suite 225, Houston, Tex. 77054 USA, Cat n#51565) to allow sufficient expression of properly folded CFTR protein on the membrane (48 hours basolateral treatment and 24 hours apical treatment), prior to electrophysiological recordings. […] G551D/ΔF508, differentiated cells are used as such for the recordings.
Information on the compounds can be retrieved on the homozygous ΔF508 CFTR samples looking at increased CFTR activity when compounds are added in an acute mode or in a chronic mode. On G551D/ΔF508 CFTR heterozygous samples compounds are added in an acute mode to the differentiated cells.
For the acute mode, for electrophysiological recording, the human airway epithelia are mounted in the TECC heating plate for electrophysiological measurement and kept at 37° C. The epithelia are bathed in a NaCl-Ringer solution (120 mM NaCl, 25 mM NaHCO3, 1.2 mM CaCl2, 1.2 mM MgCl2, 0.8 mM KH2PO4, 0.8 mM K2HPO4, pH 7.4, 5 mM glucose) on both the basolateral and apical sides. Apical amiloride is used to inhibit the endogenous ENaC currents while forkolin is applied on both apical and basolateral side to stimulate CFTR. After forskolin triggering, compounds are added on both sides to test their potential for increasing CFTR gating. Measurements are done during a 20 minute timeframe with recordings every 2 minutes. The increase in ISC is used as a measure for the increased CFTR activity, EC50 values can be generated by measuring impact of different concentrations of compound on ISC on primary cells, for this purpose each transwell is treated with a different compound concentration. Inh-172, an inhibitor specific for CFTR, is used to test the specificity of the tested compounds.
For the chronic mode, the differentiated cells are treated with 3 μM VX809 (2626 South Loop West, Suite 225, Houston, Tex. 77054 USA, Cat n#51565) and potentiator compounds at different concentrations (48 hours basolateral treatment and 24 hours apical treatment), prior to electrophysiological recordings. For electrophysiological recording, the human airway epithelia are mounted in the TECC heating plate for electrophysiological measurement and kept at 37° C. […]

T1 sequence (P13569 whole entry G178R): as the sequence (P13569 whole entry G1349D) above, with G178R, D1349G counted along it

Work on `CC1(C)Cc2c(sc(NC(=O)c3cc(C4CC4)[nH]n3)c2C(N)=O)C(C)(C)O1` [Compound 13, N-(3-carbamoyl-5,5,7,7-tetramethyl-5,7-dihydro-4H-thieno[2,3-c]pyran-2-yl)-5-cyclopropyl-1H-pyrazole-3-carboxamide] yielded an EC50 (CFTR-G178R) of 0.0988 µM, an EC50 (CFTR-G1349D) of 0.0753 µM and an EC50 (CFTR-R117H) of 0.177 µM. It also gave an EC50 (CFTR-S549N) of 0.158 µM, an EC50 (CFTR ΔF508 mutant [1]) of 0.00613 µM and an EC50 (CFTR ΔF508 mutant [2]) of 0.0179 µM. For the same compound, the EC50 (CFTR G551D mutant) was 0.198 µM.
For `CC(C)c1cc(C(=O)Nc2sc3c(c2C(N)=O)CC(C)(C)OC3(C)C)n[nH]1` [Compound 14, N-(3-carbamoyl-5,5,7,7-tetramethyl-5,7-dihydro-4H-thieno[2,3-c]pyran-2-yl)-5-isopropyl-1H-pyrazole-3-carboxamide], the EC50 (CFTR-G178R) was 0.169 µM, the EC50 (CFTR-G1349D) was 0.371 µM and the EC50 (CFTR-R117H) was 0.207 µM. For the same compound, the EC50 (CFTR-S549N) was 0.253 µM, the EC50 (CFTR ΔF508 mutant [1]) was 0.00944 µM and the EC50 (CFTR ΔF508 mutant [2]) was 0.0322 µM. The EC50 (CFTR G551D mutant) was 0.377 µM.
`CC1(C)Cc2c(sc(NC(=O)c3cc(C(F)(F)F)[nH]n3)c2C(N)=O)C(C)(C)O1` [Compound 15, N-(3-carbamoyl-5,5,7,7-tetramethyl-5,7-dihydro-4H-thieno[2,3-c]pyran-2-yl)-5-(trifluoromethyl)-1H-pyrazole-3-carboxamide] showed an EC50 (CFTR-G178R) of 0.0875 µM, an EC50 (CFTR-G1349D) of 0.0753 µM and an EC50 (CFTR-R117H) of 0.158 µM. The EC50 (CFTR-S549N) was 0.208 µM, the EC50 (CFTR ΔF508 mutant [1]) was 0.00272 µM and the EC50 (CFTR ΔF508 mutant [2]) was 0.00756 µM. The EC50 (CFTR G551D mutant) was 0.0775 µM.
`CC1(C)Cc2c(sc(NC(=O)c3n[nH]cc3Br)c2C(N)=O)C(C)(C)O1` [Compound 33, 4-bromo-N-(3-carbamoyl-5,5,7,7-tetramethyl-5,7-dihydro-4H-thieno[2,3-c]pyran-2-yl)-1H-pyrazole-3-carboxamide] was tested, and the EC50 (CFTR-G178R) was 0.0886 µM, the EC50 (CFTR-G1349D) was 0.116 µM and the EC50 (CFTR-R117H) was 0.165 µM. It also gave an EC50 (CFTR-S549N) of 0.164 µM, an EC50 (CFTR ΔF508 mutant [1]) of 0.00693 µM and an EC50 (CFTR ΔF508 mutant [2]) of 0.004 µM. For the same compound, the EC50 (CFTR G551D mutant) was 0.092 µM.
For `Cc1[nH]nc(C(=O)Nc2sc3c(c2C(N)=O)CC(C)(C)OC3(C)C)c1Cl` [Compound 34, N-(3-carbamoyl-5,5,7,7-tetramethyl-5,7-dihydro-4H-thieno[2,3-c]pyran-2-yl)-4-chloro-5-methyl-1H-pyrazole-3-carboxamide], the EC50 (CFTR-G178R) was 0.0422 µM, the EC50 (CFTR-G1349D) was 0.0474 µM and the EC50 (CFTR-R117H) was 0.301 µM. It also gave an EC50 (CFTR-S549N) of 0.444 µM, an EC50 (CFTR ΔF508 mutant [1]) of 0.0101 µM and an EC50 (CFTR ΔF508 mutant [2]) of 0.01 µM. The EC50 (CFTR G551D mutant) was 0.27 µM.
For `COCc1cc(C(=O)Nc2sc3c(c2C(N)=O)CC(C)(C)OC3(C)C)n[nH]1` [Compound 42, N-(3-carbamoyl-5,5,7,7-tetramethyl-5,7-dihydro-4H-thieno[2,3-c]pyran-2-yl)-5-(methoxymethyl)-1H-pyrazole-3-carboxamide], the EC50 (CFTR-G178R) was 0.156 µM, the EC50 (CFTR-G1349D) was 0.678 µM and the EC50 (CFTR-R117H) was 0.193 µM. The EC50 (CFTR-S549N) was 0.508 µM, the EC50 (CFTR ΔF508 mutant [1]) was 0.0153 µM and the EC50 (CFTR ΔF508 mutant [2]) was 0.0122 µM.
In the case of `COCc1c[nH]nc1C(=O)Nc1sc2c(c1C(N)=O)CC(C)(C)OC2(C)C` [Compound 105, N-(3-carbamoyl-5,5,7,7-tetramethyl-4H-thieno[2,3-c]pyran-2-yl)-4-(methoxymethyl)-1H-pyrazole-3-carboxamide], the EC50 (CFTR-G178R) is reported as 0.0544 µM, the EC50 (CFTR-G1349D) is reported as 0.12 µM and the EC50 (CFTR-R117H) is reported as 0.435 µM. It also gave an EC50 (CFTR-S549N) of 0.293 µM, an EC50 (CFTR ΔF508 mutant [1]) of 0.00667 µM and an EC50 (CFTR ΔF508) of 0.0544 µM. It also gave an EC50 (CFTR G551D mutant) of 0.73 µM.
Work on `CC1(C)Cc2c(sc(NC(=O)C3(O)CCOCC3)c2C(N)=O)C(C)(C)O1` [Compound 154, 2-[(4-hydroxytetrahydropyran-4-carbonyl)amino]-5,5,7,7-tetramethyl-4H-thieno[2,3-c]pyran-3-carboxamide] yielded an EC50 (CFTR-G178R) of 3.33 µM, an EC50 (CFTR-G1349D) of 3.33 µM and an EC50 (CFTR-R117H) of 1.58 µM. For the same compound, the EC50 (CFTR-S549N) was 2.37 µM, the EC50 (CFTR ΔF508 mutant [1]) was 0.0625 µM and the EC50 (CFTR ΔF508) was 0.502 µM.
